Assay [1] deals with T1, FGF23/FGFR4 binding (Homo sapiens, UniProt P22455+Q9GZV9, R179Q).
T1 construct: Fc-FGFR4 protein (human ectodomain) was immobilized; purchased R&D Systems human FGF23 2604FG025/CF; human FGFR4 685FR050
Kind of assay: Surface plasmon resonance, FGF23 binding to surface FGFR4 with heparin or sKL in solution. To be noted: heparin or sKL in solution. The protocol:
For the direct quantitative analysis of label-free molecular interactions in real time, surface plasmon resonance studies were conducted using BIAcore T200 and T200 evaluation software (28975001, Cytiva). Sensor SA (BR100398) and CMS chips (BR100399) were from Cytiva. For the preparation of heparin chips, heparin (2 mg) and amine-PEG3-Biotin (2 mg, 21347, Pierce) were dissolved in 200 μl of H2O and 10 mg of NaCNBH3 was added. The reaction mixture was heated at 70° C. for 24 hours; an additional 10 mg of NaCNBH3 was added; and the reaction was heated at 70° C. for another 24 hours. After cooling to room temperature, the mixture was desalted with the spin column (3000 MWCO). Biotinylated heparin was collected, freeze dried, and used for chip preparation. Biotinylated heparin was immobilized to streptavidin chips according to the manufacturer's protocol. In brief, 20 μl of biotinylated heparin solution (0.1 mg/ml) in HBS-P running buffer (0.01 M N-2-hydroxyethylpiperazine-N′-2-ethanesulfonic acid, 0.15 M NaCl, 0.005% surfactant P20 [pH7.4]; BR100368, Cytiva) was injected over flow cell 2 of the streptavidin chip at a flow rate of 10 μl/min. The successful immobilization of heparin was confirmed by the observation of an approximately 200-resonance unit increase in the sensor chip. […] The response was monitored as a function of time (sensorgram) at 25° C.
For orientation: SPR reads the build-up and loss of mass on a sensor chip optically.

Assay [2] deals with male BALB/c mice. Kind of assay: Serial FGF23 and heparin injections in mice, echocardiography and heart weight. In kind it is in vivo, mouse. The settings on record: heparin 125 USP/kg and/or FGF23 40 μg/kg. The protocol: FGF23 injections were administered following a similar protocol established previously. 13,72,73 Briefly, 12-week-old male BALB/c mice (The Jackson Laboratory) underwent tail vein injections. The day before the experiment, mice underwent echocardiographic analysis, as described below. Mice were anesthetized in 2.5% isoflurane and placed on a heat pad. Each group consisted of 5 mice, and different groups were injected with isotonic saline, heparin, FGF23, or FGF23 and heparin combined. Per injection, 40 μg/kg of FGF23 and 125, 62.5, or 12.5 USP/kg of heparin dissolved in 200 μl of isotonic saline were used, with 8 hours were used between injections for a total of 5 consecutive days. All injections were performed via the lateral tail vein. On the morning of the sixth day, 16 hours after the final tail vein injection, animals underwent echocardiographic analysis and were killed. Middle sections of hearts were cut along the short axis and stored overnight in 4% phosphate-buffered formaldehyde solution. Sections were sent to IDEXX Laboratories for embedding, hematoxylin and eosin (H&E) staining, and sectioning. Sections for wheat germ agglutinin (WGA) labeling were not stained by IDEXX Laboratories.
Echocardiographic analysis was performed on day 6 of the experiment for FGF23-injected mice by using the Vevo 770 or Vevo 3100 imaging system (FUJIFILM VisualSonics). Animals were anesthetized with 1.5% isoflurane, and normal body temperature was maintained using a rectal probe for temperature monitoring. For analysis, both B- and M-mode images were obtained in the short- and long-axis views. Correct positioning of the transducer was ensured using B-mode imaging in the long-axis view before switching to the short-axis view. Image analysis was performed using Vevo 770 Workstation and Vevo LAB software (FUJIFILM VisualSonics).

T1 sequence (Q9GZV9 25-251 R179Q): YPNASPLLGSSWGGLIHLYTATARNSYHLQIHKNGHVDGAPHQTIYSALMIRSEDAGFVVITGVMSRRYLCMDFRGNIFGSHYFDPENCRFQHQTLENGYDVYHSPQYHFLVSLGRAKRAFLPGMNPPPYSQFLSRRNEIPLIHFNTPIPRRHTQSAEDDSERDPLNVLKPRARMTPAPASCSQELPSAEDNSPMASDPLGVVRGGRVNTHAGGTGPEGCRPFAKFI
T1 sequence (P22455 22-369 limits assumed): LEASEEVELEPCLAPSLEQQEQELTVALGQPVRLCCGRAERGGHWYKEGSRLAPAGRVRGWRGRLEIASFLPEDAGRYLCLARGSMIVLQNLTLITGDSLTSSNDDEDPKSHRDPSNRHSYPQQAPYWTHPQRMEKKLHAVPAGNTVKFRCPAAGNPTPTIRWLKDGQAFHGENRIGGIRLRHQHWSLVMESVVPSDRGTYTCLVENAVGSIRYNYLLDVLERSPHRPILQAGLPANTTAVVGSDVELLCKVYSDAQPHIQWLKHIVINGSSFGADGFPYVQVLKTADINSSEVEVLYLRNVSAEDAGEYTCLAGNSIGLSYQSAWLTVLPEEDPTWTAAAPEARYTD

Take heparin [reference compound]: in assay [1], the “increase in FGF23/FGFR4 binding affinity” value is listed as “approximately 3 fold”. Also, in assay [2], the “Endocardial % EF” value is reported as 56.51 ± 4.08%, the “Endocardial % FAC” value is recorded as 47.34 ± 2.41%, the Endocardial Area; s was determined as 5.47 ± 0.44 mm² and the “Endocardial major; d” value came to 7.23 ± 0.11 mm. For the same substance, in assay [2], the Epicardial Area: s was 18.2 ± 0.63 mm², the Epicardial Area; d was 22.5 ± 0.78 mm², the Heart rate is listed as 448.40 ± 4.52 BPM and the “LV Mass; d” value turned out to be 111.90 ± 5.23 mg. In addition, the “T; d” value in assay [2] came out at 0.88 ± 0.03 mm.

The record behind these values is US20240384250A1, “FIBROBLAST GROWTH FACTOR 23 MODULATING COMPOUNDS” (THE UAB RESEARCH FOUNDATION, priority 2021, published 2024).
